Data from paper PMC6897958, “Structural basis of ligand selectivity and disease mutations in cysteinyl leukotriene receptors” (Nature Communications, 2019).
Entries after “also recorded” stand apart in the source; their conditions may differ.

Legend:
HEK293 cells = experiment: Quantification of LTD4 degradation in IP1 assay (UPLC/MS); assay type: in vitro ADME; conditions: 10 µM LTD4 over HEK293 monolayer, 30 min, 37 °C, with or without L-Cys
Method: HEK293 cells were seeded in a 6-well plate at a density of 300,000 cells per well. Forty-eight hours after seeding, medium was removed, and cells were washed twice with PBS. […] After incubation, supernatant was filtered through a 0.22 µm PVDF filter and an internal standard was added before injection on UPLC/MS (Waters UPLC system coupled with a SQ detector 2 and a PDA eλ detector, using an Acquity UPLC BEH C18 column, 2.1 mm × 50 mm, 1.7 μm spherical size). UPLC chromatograms were recorded using the following gradient: water + 0.1% TFA and acetonitrile (0 → 0.2 min, 5% acetonitrile; 0.2 → 1.5 min, 5% → 95%; 1.5 → 1.8 min, 95%; 1.8 → 2.0 min, 95% → 5%; and 2.0 → 2.5 min, 5%). Quantification was done by determining the area under the curve (AUC) ratio of the tested compound over AUC of the internal standard. […] Quantification results are expressed as mean ± s.e.m. of three independent experiments.

CysLT2R wild type = target: T1, CysLT2R wild type (Homo sapiens, UniProt Q9NS75); experiment: IP1 production assay (Cisbio IP-One), HEK293 cells transfected with wild-type CysLT2R; assay type: cell-based
T1 construct: host or cells: HEK293 (ATCC CRL-1573)
Method: (§1) For CysLT2R functional assays, the initial CysLT2R wild-type gene with an N-terminal 3 × HA tag cloned into pcDNA3.1+ (Invitrogen) at EcoRI(5′) and XhoI(3′) was purchased from cDNA.org. All further gene modifications (point mutations, truncations, or partner protein fusion) were introduced by overlapping PCR. Sequences of all primers used in this work are listed in Supplementary Table 4.
The Cisbio IP-One kit was used according to the manufacturer’s instructions. […] At 48 h post transfection, the media was removed and the cells were washed with fresh Hank’s Balanced Salt Solution. […] After equilibration for 30 min at 37 °C, the cells were lysed with IP1-D2 and Ab-Crypt reagents in lysis buffer and then incubated for 1 h at RT. […] Data were plotted using the three parameters EC50/IC50 fit in GraphPad Prism 7 (San Diego, CA) and represent the mean ± s.d. of at least two independent experiments performed in quadruplicate.

CysLT2R E310^8.48G = target: T2, CysLT2R E310^8.48G (Homo sapiens, UniProt Q9NS75, E310G); experiment: IP1 production assay, HEK293 transfected with CysLT2R mutant; assay type: cell-based
T2 construct: expressed in transfected cells; host or cells: HEK293 (ATCC CRL-1573)
From the text: as §1
(§2) The Cisbio IP-One kit was used according to the manufacturer’s instructions. HEK293 cells (ATCC CRL-1573) were seeded onto poly-L-Lysine-coated 384-well plates at 20,000 cells per well and transfected with 40 ng of DNA coding for the wild-type CysLT2R or for the CysLT2R mutants using the X-treme-Gene HP (Roche) agent. At 48 h post transfection, the media was removed and the cells were washed with fresh Hank’s Balanced Salt Solution. […] After equilibration for 30 min at 37 °C, the cells were lysed with IP1-D2 and Ab-Crypt reagents in lysis buffer and then incubated for 1 h at RT. […] Data were plotted using the three parameters EC50/IC50 fit in GraphPad Prism 7 (San Diego, CA) and represent the mean ± s.d. of at least two independent experiments performed in quadruplicate.

CysLT2R E310^8.48A = target: T3, CysLT2R E310^8.48A (Homo sapiens, UniProt Q9NS75, E310A); experiment: as above; assay type: cell-based
T3 construct: expressed in transfected cells; host or cells: HEK293 (ATCC CRL-1573)
From the text: as §1, §2

CysLT2R K194 ^ECL2R = target: T4, CysLT2R K194 ^ECL2R (Homo sapiens, UniProt Q9NS75, K194R); experiment: as above; assay type: cell-based
T4 construct: expressed in transfected cells; host or cells: HEK293 (ATCC CRL-1573)
From the text: as §1, §2

CysLT2R I126^3.40V = target: T5, CysLT2R I126^3.40V (Homo sapiens, UniProt Q9NS75, I126V); experiment: as above; assay type: cell-based
T5 construct: expressed in transfected cells; host or cells: HEK293 (ATCC CRL-1573)
From the text: as §1, §2

CysLT2R K37^1.31R = target: T6, CysLT2R K37^1.31R (Homo sapiens, UniProt Q9NS75, K37R); experiment: as above; assay type: cell-based
T6 construct: expressed in transfected cells; host or cells: HEK293 (ATCC CRL-1573)
From the text: as §1, §2

CysLT2R Y127^3.41W = target: T7, CysLT2R Y127^3.41W (Homo sapiens, UniProt Q9NS75, Y127W); experiment: as above; assay type: cell-based
T7 construct: expressed in transfected cells; host or cells: HEK293 (ATCC CRL-1573)
From the text: as §1, §2

CysLT2R V135^3.49D = target: T8, CysLT2R V135^3.49D (Homo sapiens, UniProt Q9NS75, V135D); experiment: as above; assay type: cell-based
T8 construct: expressed in transfected cells; host or cells: HEK293 (ATCC CRL-1573)
From the text: as §1, §2

CysLT2R L129^3.43Q = target: T9, CysLT2R L129^3.43Q (Homo sapiens, UniProt Q9NS75, L129Q); experiment: as above; assay type: cell-based; conditions: for remaining activity at 1 µM: HEK293, Log[Antagonist] -6 M, L129Q constitutive activity, source data Supp Figure 6D; for remaining activity at 0.01 µM: HEK293, Log[Antagonist] -8 M; for remaining activity at 0.001 µM: HEK293, Log[Antagonist] -9 M; for reversal of constitutive activity (IP1 production) of L129^3.43Q: antagonist 1 µM
T9 construct: expressed in transfected cells; host or cells: HEK293 (ATCC CRL-1573)
T9 sequence (Q9NS75 1-346 L129Q): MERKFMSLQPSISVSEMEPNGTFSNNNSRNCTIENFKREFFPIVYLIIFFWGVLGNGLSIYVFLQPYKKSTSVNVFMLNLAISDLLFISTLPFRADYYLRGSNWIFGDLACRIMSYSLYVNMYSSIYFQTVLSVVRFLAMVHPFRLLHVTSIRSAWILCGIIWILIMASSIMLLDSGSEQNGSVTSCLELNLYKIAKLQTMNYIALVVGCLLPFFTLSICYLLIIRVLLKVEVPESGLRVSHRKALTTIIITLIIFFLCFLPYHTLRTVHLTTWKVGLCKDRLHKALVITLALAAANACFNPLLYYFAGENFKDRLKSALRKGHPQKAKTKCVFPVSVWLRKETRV
From the text: as §1, §2

CysLT2R F260^6.48W = target: T10, CysLT2R F260^6.48W (Homo sapiens, UniProt Q9NS75, F260W); experiment: as above; assay type: cell-based
T10 construct: expressed in transfected cells; host or cells: HEK293 (ATCC CRL-1573)
From the text: as §1, §2

CysLT2R N301^7.49D = target: T11, CysLT2R N301^7.49D (Homo sapiens, UniProt Q9NS75, N301D); experiment: as above; assay type: cell-based
T11 construct: expressed in transfected cells; host or cells: HEK293 (ATCC CRL-1573)
From the text: as §1, §2

CysLT2R S169^4.56A = target: T12, CysLT2R S169^4.56A (Homo sapiens, UniProt Q9NS75, S169A); experiment: as above; assay type: cell-based
T12 construct: expressed in transfected cells; host or cells: HEK293 (ATCC CRL-1573)
From the text: as §1, §2

CysLT2R W51^1.45V = target: T13, CysLT2R W51^1.45V (Homo sapiens, UniProt Q9NS75, W51V); experiment: as above; assay type: cell-based
T13 construct: expressed in transfected cells; host or cells: HEK293 (ATCC CRL-1573)
From the text: as §1, §2

CysLT2R R267^6.55K = target: T14, CysLT2R R267^6.55K (Homo sapiens, UniProt Q9NS75, R267K); experiment: as above; assay type: cell-based
T14 construct: expressed in transfected cells; host or cells: HEK293 (ATCC CRL-1573)
From the text: as §1, §2

CysLT2R Y119^3.33F = target: T15, CysLT2R Y119^3.33F (Homo sapiens, UniProt Q9NS75, Y119F); experiment: as above; assay type: cell-based
T15 construct: expressed in transfected cells; host or cells: HEK293 (ATCC CRL-1573)
From the text: as §1, §2

CysLT2R N202^5.39H = target: T16, CysLT2R N202^5.39H (Homo sapiens, UniProt Q9NS75, N202H); experiment: as above; assay type: cell-based
T16 construct: expressed in transfected cells; host or cells: HEK293 (ATCC CRL-1573)
From the text: as §1, §2

CysLT2R K194 ^ECL2N = target: T17, CysLT2R K194 ^ECL2N (Homo sapiens, UniProt Q9NS75, K194N); experiment: as above; assay type: cell-based
T17 construct: expressed in transfected cells; host or cells: HEK293 (ATCC CRL-1573)
From the text: as §1, §2

CysLT2R M201^5.38V = target: T18, CysLT2R M201^5.38V (Homo sapiens, UniProt Q9NS75, M201V); experiment: as above; assay type: cell-based
T18 construct: expressed in transfected cells; host or cells: HEK293 (ATCC CRL-1573)
From the text: as §1, §2

CysLT2R H284^7.32Q = target: T19, CysLT2R H284^7.32Q (Homo sapiens, UniProt Q9NS75, H284Q); experiment: as above; assay type: cell-based
T19 construct: expressed in transfected cells; host or cells: HEK293 (ATCC CRL-1573)
From the text: as §1, §2

CysLT2R F137^3.51Y = target: T20, CysLT2R F137^3.51Y (Homo sapiens, UniProt Q9NS75, F137Y); experiment: as above; assay type: cell-based
T20 construct: expressed in transfected cells; host or cells: HEK293 (ATCC CRL-1573)
From the text: as §1, §2

[1] = read-out: IP1 production (normalized), single replicate values
[2] = L129Q, Supp Figure 6D, read-out: IP1 production (normalized), single replicate values

T10 sequence (Q9NS75 whole entry F260W): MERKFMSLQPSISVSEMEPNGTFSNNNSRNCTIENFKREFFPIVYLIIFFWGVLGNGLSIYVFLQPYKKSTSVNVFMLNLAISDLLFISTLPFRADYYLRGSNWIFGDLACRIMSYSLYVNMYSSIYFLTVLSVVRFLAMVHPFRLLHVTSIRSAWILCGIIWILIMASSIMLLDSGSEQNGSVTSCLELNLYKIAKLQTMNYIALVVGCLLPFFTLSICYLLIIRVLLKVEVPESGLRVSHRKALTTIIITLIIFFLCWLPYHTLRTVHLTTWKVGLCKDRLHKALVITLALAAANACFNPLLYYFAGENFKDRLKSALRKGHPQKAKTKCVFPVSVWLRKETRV
T13 sequence (Q9NS75 whole entry W51V): as the sequence (Q9NS75 whole entry F260W) above, with W51V, W260F counted along it
T19 sequence (Q9NS75 whole entry H284Q): as the sequence (Q9NS75 whole entry F260W) above, with W260F, H284Q counted along it
T11 sequence (Q9NS75 whole entry N301D): as the sequence (Q9NS75 whole entry F260W) above, with W260F, N301D counted along it
T16 sequence (Q9NS75 whole entry N202H): as the sequence (Q9NS75 whole entry F260W) above, with N202H, W260F counted along it
T12 sequence (Q9NS75 whole entry S169A): as the sequence (Q9NS75 whole entry F260W) above, with S169A, W260F counted along it
T4 sequence (Q9NS75 whole entry K194R): as the sequence (Q9NS75 whole entry F260W) above, with K194R, W260F counted along it
T3 sequence (Q9NS75 whole entry E310A): as the sequence (Q9NS75 whole entry F260W) above, with W260F, E310A counted along it
T18 sequence (Q9NS75 whole entry M201V): as the sequence (Q9NS75 whole entry F260W) above, with M201V, W260F counted along it
T7 sequence (Q9NS75 whole entry Y127W): as the sequence (Q9NS75 whole entry F260W) above, with Y127W, W260F counted along it
T14 sequence (Q9NS75 whole entry R267K): as the sequence (Q9NS75 whole entry F260W) above, with W260F, R267K counted along it
T2 sequence (Q9NS75 whole entry E310G): as the sequence (Q9NS75 whole entry F260W) above, with W260F, E310G counted along it
T20 sequence (Q9NS75 whole entry F137Y): as the sequence (Q9NS75 whole entry F260W) above, with F137Y, W260F counted along it
T1 sequence (Q9NS75 whole entry): as the sequence (Q9NS75 whole entry F260W) above, with W260F counted along it
T15 sequence (Q9NS75 whole entry Y119F): as the sequence (Q9NS75 whole entry F260W) above, with Y119F, W260F counted along it
T8 sequence (Q9NS75 whole entry V135D): as the sequence (Q9NS75 whole entry F260W) above, with V135D, W260F counted along it
T5 sequence (Q9NS75 whole entry I126V): as the sequence (Q9NS75 whole entry F260W) above, with I126V, W260F counted along it
T6 sequence (Q9NS75 whole entry K37R): as the sequence (Q9NS75 whole entry F260W) above, with K37R, W260F counted along it
T17 sequence (Q9NS75 whole entry K194N): as the sequence (Q9NS75 whole entry F260W) above, with K194N, W260F counted along it

Compound	IC50 (CysLT2R wild type) [nM]	IC50 (CysLT2R E310^8.48G) [nM]	IC50 (CysLT2R E310^8.48A) [nM]	IC50 (CysLT2R K194 ^ECL2R) [nM]	IC50 (CysLT2R I126^3.40V) [nM]	IC50 (CysLT2R K37^1.31R) [nM]	IC50 (CysLT2R Y127^3.41W) [nM]	IC50 (CysLT2R V135^3.49D) [nM]	remaining activity at 1 µM (CysLT2R L129^3.43Q; [1]) [%]	remaining activity at 0.01 µM (CysLT2R L129^3.43Q; [2]) [%]	remaining activity at 0.001 µM (CysLT2R L129^3.43Q; [2]) [%]	reversal of constitutive activity (IP1 production) of L129^3.43Q (CysLT2R L129^3.43Q)	IC50 (CysLT2R F260^6.48W) [nM]	IC50 (CysLT2R N301^7.49D) [nM]	IC50 (CysLT2R S169^4.56A) [nM]	IC50 (CysLT2R W51^1.45V) [nM]	IC50 (CysLT2R R267^6.55K) [nM]	IC50 (CysLT2R Y119^3.33F) [nM]	IC50 (CysLT2R N202^5.39H) [nM]	IC50 (CysLT2R K194 ^ECL2N) [nM]	other results
CCCCC/C=C\C\C=C/C=C/C=C/[C@@H](SC[C@H](N)C(=O)NCC(=O)O)[C@@H](O)CCCC(=O)O [LTD4]	–	–	–	–	–	–	–	–	–	–	–	–	–	–	–	–	–	–	–	–	LTD4 conversion/degradation in functional assay (HEK293 cells): No LTD4 conversion was found; also recorded: No LTD4 degradation was observed
O=C(O)CCCN1C[C@@H](C(=O)O)Oc2c(NC(=O)c3ccc(OCCCCc4cc(F)ccc4Cl)cc3)cccc21 [cpd 11a]	14 ± 6	2 ± 1	8 ± 3	60 ± 30	20 ± 10	80 ± 30	500 ± 400	3 ± 3	76.2	78.3	74.4	not reversed	40 ± 20	170 ± 70	10 ± 4	47 ± 10	22 ± 9	100 ± 40	290 ± 100	8 ± 4	IC50 (CysLT2R M201^5.38V): 30 ± 10 nM; IC50 (CysLT2R H284^7.32Q): 230 ± 90 nM; IC50 (CysLT2R F137^3.51Y): 15 ± 5 nM
O=C(O)CCCN1CC(C(=O)O)Oc2c(NC(=O)c3ccc(OCCCCOc4cccc(F)c4F)cc3F)cccc21 (stereo not drawn) [cpd 11c]	70 ± 20	7 ± 6	18 ± 5	40 ± 20	14 ± 5	280 ± 100	44 ± 10	40 ± 30	80.7	83.3	87.9	not reversed	330 ± 100	110 ± 50	16 ± 10	160 ± 30	100 ± 30	260 ± 100	60 ± 30	32 ± 10	remaining activity at 0.1 µM (CysLT2R L129^3.43Q; HEK293, Log[Antagonist] -7 M, L129Q, Supp Figure 6D, read-out: IP1 production (normalized), single replicate values): 85.9%; remaining activity at 0.0001 µM (CysLT2R L129^3.43Q; HEK293, Log[Antagonist] -10 M, L129Q, Supp Figure 6D, read-out: IP1 production (normalized), single replicate values): 72.7%; remaining activity at 10 pM (CysLT2R L129^3.43Q; HEK293, Log[Antagonist] -11 M, L129Q, Supp Figure 6D, read-out: IP1 production (normalized), single replicate values): 64.1%; remaining activity at 1 pM (CysLT2R L129^3.43Q; HEK293, Log[Antagonist] -12 M, L129Q, Supp Figure 6D, read-out: IP1 production (normalized), single replicate values): 68%; IC50 (CysLT2R M201^5.38V): 60 ± 20 nM; IC50 (CysLT2R H284^7.32Q): 270 ± 200 nM; IC50 (CysLT2R F137^3.51Y): 70 ± 20 nM
